The first test concerns the target T1, human 17β-hydroxy steroid dehydrogenase type 1 (Homo sapiens, UniProt P14061).
T1 construct: made in house; host or cells: E. coli (suspension of bacterial pellets, enzyme not purified)
T1 sequence (P14061 1-328): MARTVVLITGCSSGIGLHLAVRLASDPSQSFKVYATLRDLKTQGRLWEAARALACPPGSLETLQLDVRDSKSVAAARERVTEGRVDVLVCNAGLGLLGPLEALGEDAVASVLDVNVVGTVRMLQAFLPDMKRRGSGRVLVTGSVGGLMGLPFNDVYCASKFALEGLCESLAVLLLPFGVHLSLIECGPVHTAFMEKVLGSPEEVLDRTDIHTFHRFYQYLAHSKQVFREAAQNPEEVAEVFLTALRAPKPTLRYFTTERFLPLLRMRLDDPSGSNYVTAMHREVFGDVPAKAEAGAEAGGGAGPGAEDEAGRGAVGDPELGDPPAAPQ
Kind of test: Inhibition of the activity of human 17β-hydroxy steroid dehydrogenase type 1 (3H-labeled substrate conversion, HPLC). The test is classed as biochemical.
Conditions: not given
An excerpt:
The test method is well described in the literature [Adamski, J., Sierralta, W. D., Jungblut, P. W., Acta Endocrinol (Copenh.) 121(2) (1989), 161-7] and is depicted below.
Human 17β-hydroxy steroid dehydrogenases (17β-HSDs) are over-expressed in E. coli bacteria as His-Tag proteins or as GST-fusion proteins. The suspensions of the bacterial pellets in isotonic common salt solution are used for the determination of enzyme activities of the 17β-HSDs or for the study of their influence by potential inhibitors (estrogen derivatives).
The measurements are made in double determination and, if necessary, at various concentrations of potential inhibitors (e.g., in determining the IC50 values). In addition to the target enzyme 17β-HSD1, other steroid-metabolizing enzymes are included in the test to study cross reactivities of estrogen derivatives.
The incubation of the samples is carried out at 37° C. in a water bath while being shaken, such that in the control (without substances to be tested), a conversion of about 30% is achieved.
The separation of radiolabeled substrate and product is then carried out, after extraction with 1 ml of reversed phase-(RP-18)-cartridges, by means of HPLC on an RP18 column with acetonitrile:water 1:1 (v/v) as a mobile phase. The radioactivity is detected with the aid of a flow-scintillation counter.
The evaluation of the substrate conversion with and without substances to be tested is performed by the integration of the substrate and product peaks. The conversion of the control normalized to 100% conversion.
For orientation: IC50 means the concentration that gives 50% inhibition. Molecule `C[C@]12CC[C@@H]3c4cc(Cl)c(O)cc4CC[C@H]3[C@@H]1C[C@@H](F)C2=O` [Compound 3, 2-Chloro-16α-fluoro-3-hydroxy-estra-1,3,5(10)-trien-17-one] displayed a half-maximal inhibitory concentration (IC50) of 101 nM.
For the molecule `C[C@]12CC[C@@H]3c4cc(Cl)c(O)cc4CC[C@H]3[C@@H]1C[C@H](F)C2=O` [Compound 4, 2-Chloro-16β-fluoro-3-hydroxy-estra-1,3,5(10)-trien-17-one], the 50% inhibitory concentration (IC50) was determined as 35 nM.
As to `C[C@]12CC[C@@H]3c4cc(CCc5ccccc5)c(O)cc4CC[C@H]3[C@@H]1CCC2=O` [Compound 21, 3-Hydroxy-2-(2′-phenyl-ethyl)estra-1,3,5(10)-trien-17-one], the IC50 was 47 nM.

The same test, now with this note: enzyme over-expressed in E. coli, bacterial suspension, 37° C.; read-out: 17βHSD1 IC50.
Take `CC[C@]12CC[C@@H]3c4cc(Cl)c(O)cc4CC[C@H]3[C@@H]1CCC2=O` [Compound 1, 2-Chloro-3-hydroxy-18a-homoestra-1,3,5(10)-trien-17-one]: the IC50 was 121 nM.
The same measure, in the same setting: to `C[C@]12CC[C@@H]3c4cc(Cl)c(O)cc4CC[C@H]3[C@@H]1CCC2=O` [Compound 11, 2-Chloro-3-hydroxy-estra-1,3,5(10)-trien-17-one] belongs 140 nM; to `C[C@]12CC[C@@H]3c4cc(C#N)c(O)cc4CC[C@H]3[C@@H]1CCC2=O` [Compound 12, 2-Cyano-3-hydroxy-estra-1,3,5(10)-trien-17-one], 148 nM; to `C[C@]12CC[C@@H]3c4cc(C#Cc5ccccc5)c(O)cc4CC[C@H]3[C@@H]1CCC2=O` [Compound 19, 3-Hydroxy-2-phenylethinyl-estra-1,3,5(10)-trien-17-one], 56 nM.
On the same count and under the same terms, to `CCc1cc2c(cc1O)CC[C@@H]1[C@@H]2CC[C@]2(C)C(=O)CC[C@@H]12` [Compound 23, 2-Ethyl-3-hydroxy-estra-1,3,5(10)-trien-17-one] belongs 89 nM.
